# Literature values as cited in patent US20250281408A1, “AMORPHOUS SOLID DISPERSIONS AND PHARMACEUTICAL COMPOSITIONS COMPRISING THE SAME” (Shenzhen Pharmacin Co., Ltd., priority 2022, published 2025).
# Where two headings read alike, the source gives them in different places.
# Columns and labels:
# [1] = relative to fasted conditions, healthy subjects
# [2] = fed conditions
# [3] = high-fat or low-fat meal
smiles,measurement,setting,value
CC(=O)O[C@H]1CC[C@@]2(C)C(=CC[C@@H]3[C@@H]2CC[C@]2(C)C(c4cccnc4)=CC[C@@H]32)C1 [Abiraterone Acetate],solubility in water,,very poorly water soluble
COc1cc2nccc(Oc3ccc(NC(=O)C4(C(=O)Nc5ccc(F)cc5)CC4)cc3)c2cc1OC [Cabozantinib],increase of AUC by a high-fat meal,[1],57%
same,increase of Cmax by a high-fat meal,[1],41%
same,solubility in aqueous solution / aqueous media,,practically insoluble
CC1(C)CCC(CN2CCN(c3ccc(C(=O)NS(=O)(=O)c4ccc(NCC5CCOCC5)c([N+](=O)[O-])c4)c(Oc4cnc5[nH]ccc5c4)c3)CC2)=C(c2ccc(Cl)cc2)C1 [Venetoclax],solubility in water,,poor water solubility
CCc1cc2c(cc1N1CCC(N3CCOCC3)CC1)C(C)(C)c1[nH]c3cc(C#N)ccc3c1C2=O [alectinib],absolute bioavailability,[2],37%
same,solubility in aqueous solution / aqueous media,,very hard to dissolve
O=C1[C@@H]2[C@H]3CC[C@H](C3)[C@@H]2C(=O)N1C[C@@H]1CCCC[C@H]1CN1CCN(c2nsc3ccccc23)CC1 [lurasidone],solubility in water,,very slightly soluble
Cc1ccc(Nc2nccc(N(C)c3ccc4c(C)n(C)nc4c3)n2)cc1S(N)(=O)=O [pazopanib],increase in AUC with food,[3],approximately 2 fold
same,increase in Cmax with food,[3],approximately 2 fold
same,solubility in aqueous media,above pH 4,practically insoluble
same,solubility in aqueous media,pH 1,very slightly soluble
N#Cc1ccc2[nH]cc(CCCCN3CCN(c4ccc5oc(C(N)=O)cc5c4)CC3)c2c1 [vilazodone],solubility in water,,very slightly soluble
